# Source: US8609161B2, “Conglutin-gamma as medicament and diet supplement” (Ospedale San Raffaele S.R.L., priority 2008, dated 2013)
# “Also recorded” adds a separate entry of the source.
# Columns and labels:
# [1] = system: myogenin; assay: myogenin content, western blot of stimulated C2C12 myotubes; type: cell-based, mouse; conditions: I 100 nM, Cg 0.5 mg/ml, Mf 400 μM
# Method: (§1) C2C12 myoblasts were cultured at 37° C. in humidified 5% CO2 atmosphere in a growth medium (GM) containing DMEM supplemented with 20% (v/v) FBS (fetal bovine serum), 1% penicillin-streptomycin and 1% L-glutamine. Cell differentiation was initiated by placing 70% confluent cell cultures in DMEM supplemented with 1% HS (horse serum) and antibiotics (DM). To prepare myotube cultures, myoblasts were cultured in DM for 72 hours. Cells used as control (C) were switched back to GM for the duration of the experiment. Other three groups of cells were replaced in GM with the selective addition respectively of insulin (I; 100 nM), conglutin-γ (Cg; 0.5 mg/ml) and metformin (Mf; 400 μM). For each experimental condition cells were lysed at 0, 5, 10, 20 and 30 minutes after the stimuli addition.
# (§2) C2C12 myofibers were homogenized in lysis buffer (50 mM Tris/HCl, pH 7.4, 150 mM NaCl, 1% Triton X-100, 1 mM sodium orthovanadate (Na3VO4), 1 mM EDTA, 1 mM PMSF, 1 mg/ml aprotinin, 1 mg/ml leupeptin, 1 mg/ml pepstatin) and shaked for 1 h at 4° C. […]
# (§3) The membrane was stripped and re-probed with an antibody to actin or tubulin to confirm equal protein loading per sample. Quantitative measurement of immunoreactive bands was performed by densitometric analysis using the Scion image software (Scion corporation, Frederick, Md., USA).
# [2] = system: MHC; assay: MHC gene expression (protein content), western blot of stimulated C2C12 myotubes; type: cell-based, mouse; conditions: Cg 0.5 mg/ml
# Method: as §1, §2, §3
# [3] = system: eIF4E; assay: eIF4E protein, western blot of stimulated C2C12 myotubes; type: cell-based, mouse; conditions: for eIF4E protein concentration increase: I 100 nM
# Method: as §1
# (§4) C2C12 myofibers were homogenized in lysis buffer (50 mM Tris/HCl, pH 7.4, 150 mM NaCl, 1% Triton X-100, 1 mM sodium orthovanadate (Na3VO4), 1 mM EDTA, 1 mM PMSF, 1 mg/ml aprotinin, 1 mg/ml leupeptin, 1 mg/ml pepstatin) and shaked for 1 h at 4° C. Detergent-insoluble material was removed from the cell suspension by centrifugation at 12,000×g for 30 min. Aliquots of 30 µg supernatant proteins from the different samples were resolved by 8% (IRS1, MHC, myogenin and p-CBL), 10% (PI3K p85, AKT1, p-p70 S6K and PKC), 12% (eIF-4E, p-ERK1, p-ERK2, caveolin-3 and flottilin-2) and 15% (PHAS1) SDS-PAGE (Sodium Dodecyl Sulfate—PolyAcrylamide Gel Electrophoresis). Electrophoresed proteins were transferred onto nitrocellulose membranes using a Bio-Rad Mini Trans-Blot system. […]
# as §3
# [4] = system: PHAS-1; assay: PHAS-1 α and β bands, western blot of stimulated C2C12 myotubes; type: cell-based, mouse; conditions: I 100 nM, Cg 0.5 mg/ml, Mf 400 μM
# Method: as §1, §2, §3
# [5] = system: p70S6K; assay: p70S6K phosphorylation, western blot of stimulated C2C12 myotubes; type: cell-based, mouse; conditions: Mf 400 μM; for p70S6K phosphorylation: I 100 nM, Cg 0.5 mg/ml
# Method: as §1
# C2C12 myofibers were homogenized in lysis buffer (50 mM Tris/HCl, pH 7.4, 150 mM NaCl, 1% Triton X-100, 1 mM sodium orthovanadate (Na3VO4), 1 mM EDTA, 1 mM PMSF, 1 mg/ml aprotinin, 1 mg/ml leupeptin, 1 mg/ml pepstatin) and shaked for 1 h at 4° C. Detergent-insoluble material was removed from the cell suspension by centrifugation at 12,000×g for 30 min. Aliquots of 30 µg supernatant proteins from the different samples were resolved by 8% (IRS1, MHC, myogenin and p-CBL), 10% (PI3K p85, AKT1, p-p70 S6K and PKC), 12% (eIF-4E, p-ERK1, p-ERK2, caveolin-3 and flottilin-2) and 15% (PHAS1) SDS-PAGE (Sodium Dodecyl Sulfate—PolyAcrylamide Gel Electrophoresis). Electrophoresed proteins were transferred onto nitrocellulose membranes using a Bio-Rad Mini Trans-Blot system. The blots were blocked with 50 mg/ml non-fat dry milk in 20 mM Tris/HCl, pH 7.4, 100 mM NaCl for 1 h at room temperature and then incubated overnight at 4° C. with respective primary antibodies in 10 mg/ml non-fat dry milk, 20 mM TRIS/HCl pH 7.4 and 100 mM NaCl and 0.3% Tween 20. After several washes the membranes were incubated with species-specific secondary antibodies. Immunoreactive bands were visualized by an enhanced chemiluminescence method (Amersham Pharmacia Biotech, Piscataway, N.J., USA).
# as §3
# [6] = system: C2C12 myoblasts; assay: Immunofluorescence of MHC-positive myotubes (differentiation, hypertrophy); type: cell-based, mouse; conditions: vs un-stimulated differentiated muscle cells; I 100 nM, Cg 0.5 mg/ml, Mf 400 μM
# Method: To prepare myotube cultures, myoblasts were cultured in DM for 72 hours. Cells used as control (C) were switched back to GM for the duration of the experiment. […] For each experimental condition cells were lysed at 0, 5, 10, 20 and 30 minutes after the stimuli addition. For immunofluorescence analysis C2C12 myoblasts differentiated as above were stimulated with insulin, conglutin-γ and metformin for 30 minutes. In differentiated cells immunostained with anti-MHC the DAPI stained nuclei per myotube, myotubes length and diameter were determined and expressed as average.
# [7] = system: Akt-1; assay: Akt-1 protein, western blot of stimulated C2C12 myotubes; type: cell-based, mouse
# Method: as §1, §4, §3
# [8] = system: ERK1; assay: ERK-1 phosphorylation, western blot of stimulated C2C12 myotubes; type: cell-based, mouse
# Method: as §1, §2, §3
# [9] = system: ERK2; assay: ERK-2 phosphorylation, western blot of stimulated C2C12 myotubes; type: cell-based, mouse
# Method: as §1, §4, §3
# [10] = system: flottilin-2; assay: flottilin-2 protein, western blot of stimulated C2C12 myotubes; type: cell-based, mouse
# Method: as §1, §2, §3
# [11] = system: caveolin-3; assay: caveolin-3 protein, western blot of stimulated C2C12 myotubes; type: cell-based, mouse; conditions: 30 min / toward the end of the experiment; I 100 nM, Mf 400 μM
# Method: as §1, §2, §3
# [12] = system: PKC; assay: PKC protein, western blot of stimulated C2C12 myotubes; type: cell-based, mouse
# Method: as §1, §2, §3
# [13] = system: IRS-1; assay: IRS-1 protein content, western blot of stimulated C2C12 myotubes; type: cell-based, mouse; conditions: I 100 nM, Cg 0.5 mg/ml, Mf 400 μM; for IRS-1 activation: 30 min
# Method: as §1, §4, §3
# [14] = system: p85-PI3 kinase; assay: PI3K-p85 subunit, western blot of stimulated C2C12 myotubes; type: cell-based, mouse; conditions: I 100 nM, Cg 0.5 mg/ml
# Method: as §1, §2, §3
# [15] = Intraperitoneal glucose tolerance test (IPGTT), blood glucose; type: in vivo, C57B1/6 wild type mice
# Method: (§5) For this protocol C57B1/6 wild type mice were utilized. Intraperitoneal glucose tolerance test (IPGTT) was performed by injecting glucose (2 g/kg body weight) i.p. in three groups of overnight-fasted mice. Thirty minutes before glucose administration, conglutin-gamma (120 mg/kg b.w.) was injected i.p. in the “Conglutin” group of mice. In the “Insulin” group of mice, insulin (0.5 U/kg b.w.) was administered i.p. at the same time of glucose injection (time 0). Blood glucose levels were determined prior (30 and 0 minutes) to injection and 30, 60, 90, and 120 min after injection. Blood samples were obtained from the tail vein and plasmas used to measure glucose concentration by the glucose reflectometer. At the end of the study gastrocnemius muscle was taken. A group of overnight-fasted mice (basal) was sacrificed before the study and gastrocnemius muscle taken. A group of animals that received saline instead of insulin or conglutin-gamma, was used as control (saline).
# [16] = system: p70S6K; assay: p70S6k phosphorylation in gastrocnemius muscle at end of IPGTT; type: in vivo, mouse; conditions: 120 min; conglutin-gamma 120 mg/kg i.p., insulin 0.5 U/kg i.p.
# Method: as §5
# (§6) Collected gastrocnemius muscle was frozen in liquid nitrogen immediately after excision and then stored at −80° C. A gram of tissue with 1.5 ml of ice cold RIPA buffer was disrupted and homogenized with a dounce homogenizer, maintaining temperature at 4° C. throughout all procedures, then incubated on ice for 30 minutes. The homogenate was transferred to microcentrifuge tubes, centrifugated at 10,000×g for 10 minutes at 4° C. […]
# [17] = system: AKT1; assay: AKT1 protein expression in gastrocnemius muscle at end of IPGTT; type: in vivo, mouse; conditions: 120 min, with respect to the untreated muscle; conglutin-gamma 120 mg/kg i.p., insulin 0.5 U/kg i.p.
# Method: as §5, §6
# [18] = system: GSK-3; assay: GSK-3 in gastrocnemius muscle at end of IPGTT; type: in vivo, mouse; conditions: 120 min; conglutin-gamma 120 mg/kg i.p., insulin 0.5 U/kg i.p.
# Method: as §5, §6
# [19] = system: insulin receptor beta (IR-beta); assay: IR-beta protein content in gastrocnemius muscle at end of IPGTT; type: in vivo, mouse; conditions: 120 min, with respect to the basal and saline group; conglutin-gamma 120 mg/kg i.p., insulin 0.5 U/kg i.p.
# Method: as §5, §6
# [20] = system: eIF4E; assay: eIF4E protein in gastrocnemius muscle at end of IPGTT; type: in vivo, mouse; conditions: 120 min; conglutin-gamma 120 mg/kg i.p., insulin 0.5 U/kg i.p.
# Method: as §5, §6
# [21] = system: ERK1 and ERK2; assay: ERK1 and ERK2 phosphorylation in gastrocnemius muscle at end of IPGTT; type: in vivo, mouse; conditions: 120 min; conglutin-gamma 120 mg/kg i.p., insulin 0.5 U/kg i.p.
# Method: as §5, §6
# [22] = system: Cbl; assay: Cbl phosphorylation, western blot of stimulated C2C12 myotubes; type: cell-based, mouse; conditions: 30 min; I 100 nM
# Method: as §1, §2, §3
# [23] = Mf 400 μM vs insulin and conglutin-γ
molecule,measurement,setting,value
"CN(C)C(=N)N=C(N)N [metformin, Metformin]",myogenin activation,[1],did not exert any effect
same,"MHC gene expression, in words","[2]; with respect to un-stimulated differentiated muscle cells, Mf 400 μM",unable to produce the same effect; also recorded: not able to induce the same gene expression
same,"eIF4E activation, in words",[3]; Mf 400 μM,not able to exert an activation
same,density of PHAS-1 α and β bands in respect to the control,[4],more increased
same,p70S6K phosphorylation,[5]; 30 min,~32%
same,Emax,"[5]; Mus musculus, C2C12, 10 min, within 10 min, read-out: p70S6K phosphorylation (maximal effect)",~46%
same,fusion index,[6],gradually increase
same,myotubes diameter,[6],gradually increase
same,myotubes length,[6],gradually increase
same,number of nuclei present in MHC positive myotubes,[6],gradually increase
same,Emax,"[7]; Mus musculus, C2C12, 5 min, 5 min, Mf 400 μM, read-out: Akt-1 protein concentration change (maximal effect)",~20%
same,"ERK1 activation, in words",[8]; [23],higher activation
same,"ERK2 activation, in words",[9]; [23],higher activation
same,"flottilin-2 activation, in words",[10]; Mf 400 μM,did not exert any flottilin-2 activation
same,caveolin-3 protein concentration increase,[11],above 70%
same,"PKC protein concentration stimulation, in words",[12]; [23],more than the other two stimuli
same,IRS-1 activation,[13],~76%
insulin: primary hormone responsible for proteosynthesis control and glucose homeostasis; comparator stimulus,p85-PI3 kinase activation,[14]; 30 min (end of the experiment),~56%
same,p85-PI3 kinase activation,[14]; within 5 min,~62%
same,myogenin activation,[1],overlapping
same,blood glucose concentration at the end of the study,"[15]; 120 min after glucose 2 g/kg i.p., conglutin-gamma 120 mg/kg i.p. at -30 min, insulin 0.5 U/kg i.p. at time 0",~120 mg/dL
same,course of blood glucose decrease during IPGTT,"[15]; glucose 2 g/kg i.p., conglutin-gamma 120 mg/kg i.p., insulin 0.5 U/kg i.p.",decreased rapidly
same,MHC expression increase,"[2]; with respect to the un-stimulated differentiated muscle cells, I 100 nM",~600%
same,p70S6k phosphorylation in muscle,[16],increased
same,eIF4E protein concentration increase,"[3]; 30 min (end of the experiment), Cg 0.5 mg/ml",~30%
same,eIF4E protein concentration increase,[3]; persistent from 5 to 20 min,~45%
same,AKT1 expression in muscle,[17],able to increase AKT1 expression
same,GSK-3 phosphorylation in muscle,[18],increased
same,density of PHAS-1 α and β bands in respect to the control,[4],more increased
same,p70S6K phosphorylation,[5]; 30 min,~94%
same,p70S6K phosphorylation,[5]; within 5 min,~40%
same,IR-beta protein content in muscle,[19],trend towards IR-beta protein content increment
same,fusion index,[6],gradually increase
same,myotubes diameter,[6],gradually increase
same,myotubes length,[6],gradually increase
same,number of nuclei present in MHC positive myotubes,[6],gradually increase
same,Akt-1 protein concentration change,"[7]; 20 min, I 100 nM, Cg 0.5 mg/ml, Mf 400 μM",~13%
same,"AKT-1 phosphorylation, in words","[7]; any time 5-30 min, I 100 nM, Cg 0.5 mg/ml",modest stimulation above basal at any time
same,ERK1 activation (peak),"[8]; 20 min, I 100 nM, Cg 0.5 mg/ml",~27%
same,eIF4E activation in muscle,[20],able to increment
same,ERK2 activation,"[9]; 10 min, I 100 nM",~20%
same,ERK2 activation (maximum),"[9]; 30 min, I 100 nM, Cg 0.5 mg/ml",~28%
same,flottilin-2 protein concentration increase (peak),"[10]; 10 min, I 100 nM, Cg 0.5 mg/ml",~60%
same,ERKs phosphorylation in muscle,[21],able to increment
same,caveolin-3 protein concentration increase,[11],~34%
same,PKC concentration increase,"[12]; 20 min, I 100 nM, Cg 0.5 mg/ml",~32%
same,IRS-1 protein content stimulation / activation,[13]; 20 min,~32%
same,IRS-1 activation,[13],~35%
same,Cbl phosphorylation (maximal),[22],~56%
